From patent US20130302442A1, “METHODS OF USING (4S,4AS,5AR,12AS)-4-DIMETHYLAMINO-3,10,12,12A-TETRAHYDROXY-7-[(METHOXY(METHYL)AMINO)-METHYL]-1,11-DIOXO-1,4,4A,5,5A,6,11,12A-OCTAHYDRO-NAPHTHACENE-2-CARBOXYLIC ACID AMIDE” (priority 2012, published 2013)
≈ marks a conversion by molar mass, not a printed value. Like-named read-outs stand apart in the source and are kept apart here. Blank lines part the entries; values can stand above or below the compound they belong to.

How the values were obtained:
Helicobacter pylori [1] = details: H. pylori reference strain 3718, ATCC 43504; Clinical and Laboratory Standards Institute quality control range; cited from earlier work
Helicobacter pylori [2] = experiment: In vitro MIC against multiple isolates of H. pylori; format: cell-based
S. aureus = experiment: In vitro MIC testing, antibacterial spectrum of activity; format: cell-based, Staphylococcus aureus; details: Staphylococcus aureus
S. epidermidis = experiment: as above; format: cell-based, Staphylococcus epidermidis; details: Staphylococcus epidermidis; for MIC50: read-out: MIC50; for MIC90: read-out: MIC90
[3] = test system: Streptococcus spp. [Group C]; experiment: as above; format: cell-based; details: Streptococcus spp. [Group C] (30 isolates)
[4] = test system: methicillin-sensitive S. aureus (MSSA); experiment: In vitro MIC against isolates of MSSA; format: cell-based, Staphylococcus aureus; details: Staphylococcus aureus, MSSA (34 isolates)
E. faecium = experiment: In vitro MIC testing, antibacterial spectrum of activity; format: cell-based; details: Enterococcus faecium
S. haemolyticus = experiment: as above; format: cell-based; details: Staphylococcus haemolyticus, S. haemolyticus (33 isolates)
S. pneumoniae = experiment: as above; format: cell-based, Streptococcus pneumoniae; details: Streptococcus pneumoniae, S. pneumoniae [PSSP] (32 isolates)
S. pyogenes = experiment: as above; format: cell-based; details: Streptococcus pyogenes
P. avidum = experiment: as above; format: cell-based; details: P. avidum [clinical isolates] (4 isolates)
[5] = test system: hospital-associated methicillin-resistant S. aureus (MRSA-HA); experiment: In vitro MIC against isolates of MRSA-HA; format: cell-based, Staphylococcus aureus; details: Staphylococcus aureus; MRSA-HA (33 isolates)
E. faecalis = experiment: In vitro MIC testing, antibacterial spectrum of activity; format: cell-based; details: Enterococcus faecalis
P. acnes = experiment: as above; format: cell-based, Propionibacterium acnes; details: Cutibacterium acnes
[6] = test system: community-acquired methicillin-resistant S. aureus (MRSA-CA); experiment: In vitro MIC against isolates of MRSA-CA; format: cell-based, Staphylococcus aureus; details: Staphylococcus aureus; MRSA-CA (33 isolates)
S. agalactiae = experiment: In vitro MIC testing, antibacterial spectrum of activity; format: cell-based; details: Streptococcus agalactiae
[7] = S. epidermidis [MRSE] (32 isolates)
[8] = S. epidermidis [MSSE] (31 isolates)

MIC Range (Helicobacter pylori [2]; H. pylori clinical isolate summary): 0.015 to 0.12 µg/mL
MIC (Helicobacter pylori [2]; H. pylori clinical isolate, culture No. 4368): 0.06 µg/mL (≈ 0.164 µM)
MIC (Helicobacter pylori [2]; H. pylori clinical isolate, culture No. 4369): 0.12 µg/mL (≈ 0.328 µM)
MIC (Helicobacter pylori [2]; H. pylori clinical isolate, culture No. 4370): 0.12 µg/mL (≈ 0.328 µM)
MIC (Helicobacter pylori [2]; H. pylori clinical isolate, culture No. 4371): 0.12 µg/mL (≈ 0.328 µM)
MIC (Helicobacter pylori [2]; H. pylori clinical isolate, culture No. 4372): 0.015 µg/mL (≈ 0.041 µM)
MIC (Helicobacter pylori [2]; H. pylori clinical isolate, culture No. 4374): 0.015 µg/mL (≈ 0.041 µM)
MIC (Helicobacter pylori [2]; H. pylori clinical isolate, culture No. 4375): 0.12 µg/mL (≈ 0.328 µM)
MIC (Helicobacter pylori [2]; H. pylori clinical isolate, culture No. 4377): 0.015 µg/mL (≈ 0.041 µM)
MIC (Helicobacter pylori [2]; H. pylori clinical isolate, culture No. 4503): 0.03 µg/mL (≈ 0.0821 µM)
MIC (Helicobacter pylori [2]; H. pylori clinical isolate, culture No. 4504): 0.015 µg/mL (≈ 0.041 µM)
MIC (Helicobacter pylori [2]; H. pylori reference strain, culture No. 3718, ATCC 43504): 0.03 µg/mL (≈ 0.0821 µM)
MIC (Helicobacter pylori [2]; H. pylori reference strain, culture No. 3719, ATCC 700824): 0.015 µg/mL (≈ 0.041 µM)
MIC (Helicobacter pylori [2]; H. pylori reference strain, culture No. 3720, ATCC BAA-945): 0.06 µg/mL (≈ 0.164 µM)
MIC50 (Helicobacter pylori [2]; H. pylori, MIC for 50% of clinical test isolates): 0.03 µg/mL (≈ 0.0821 µM)
MIC90 (Helicobacter pylori [2]; H. pylori, MIC for 90% of clinical test isolates): 0.12 µg/mL (≈ 0.328 µM)
SMILES: CC1(C)S[C@@H]2[C@H](NC(=O)[C@H](N)c3ccc(O)cc3)C(=O)N2[C@H]1C(=O)O [AMX, amoxicillin]
MIC, CLSI Quality Control Range (Helicobacter pylori [1]): (0.015-0.12) μg/mL

SMILES: CCC[C@@H]1C[C@@H](C(=O)N[C@@H]([C@H]2O[C@H](SC)[C@H](O)[C@@H](O)[C@H]2O)[C@H](C)Cl)N(C)C1 [Clindamycin]
MIC50 (S. aureus; MRSA): 0.25 µg/mL (≈ 0.588 µM)
MIC90 (S. aureus; MRSA): > 32 µg/mL
MIC50 (S. aureus; MSSA): 0.25 µg/mL (≈ 0.588 µM)
MIC90 (S. aureus; MSSA): > 32 µg/mL
MIC50 (S. epidermidis; [7]): > 32 µg/mL
MIC90 (S. epidermidis; [7]): > 32 µg/mL
MIC50 (S. epidermidis; [8]): 0.12 µg/mL (≈ 0.282 µM)
MIC90 (S. epidermidis; [8]): > 32 µg/mL
MIC50 ([3]; read-out: MIC50): 0.06 µg/mL (≈ 0.141 µM)
MIC90 ([3]; read-out: MIC90): 0.12 µg/mL (≈ 0.282 µM)
MIC50 [4]: 0.12 µg/mL (≈ 0.282 µM)
MIC90 ([4]; read-out: MIC90): > 32 µg/mL
MIC50 (E. faecium): > 32 µg/mL
MIC90 (E. faecium): > 32 µg/mL
MIC50 (E. faecium; VRE): > 32 µg/mL
MIC90 (E. faecium; VRE): > 32 µg/mL
MIC50 (S. haemolyticus; read-out: MIC50): 0.12 µg/mL (≈ 0.282 µM)
MIC90 (S. haemolyticus; read-out: MIC90): 1 µg/mL (≈ 2.35 µM)
MIC50 (S. pneumoniae; read-out: MIC50): 0.03 µg/mL (≈ 0.0706 µM)
MIC90 (S. pneumoniae; read-out: MIC90): 0.06 µg/mL (≈ 0.141 µM)
MIC50 (S. pyogenes): 0.03 µg/mL (≈ 0.0706 µM)
MIC90 (S. pyogenes): 0.06 µg/mL (≈ 0.141 µM)
MIC Range (P. avidum): ≦0.06-0.5 μg/mL
MIC50 [5]: 2 µg/mL (≈ 4.71 µM)
MIC90 [5]: > 32 µg/mL
MIC50 (E. faecalis): > 32 µg/mL
MIC90 (E. faecalis): > 32 µg/mL
MIC50 (P. acnes; read-out: MIC50): ≤ 0.06 µg/mL
MIC90 (P. acnes; read-out: MIC90): 4 µg/mL (≈ 9.41 µM)
MIC50 [6]: 0.12 µg/mL (≈ 0.282 µM)
MIC90 [6]: 0.25 µg/mL (≈ 0.588 µM)
MIC50 (S. agalactiae): 0.06 µg/mL (≈ 0.141 µM)
MIC90 (S. agalactiae): > 16 µg/mL
